Experimental data from patent US20090221651A1, “CHEMICAL PRECONDITIONING AS A PREVENTATIVE OR TREATMENT FOR EXCITOTOXIC SYNAPTIC DAMAGE” (priority 2005, published 2009).
Several values for one entry are separate records, joined by “and”; a condition that tells them apart may be missing. Equal values may be shown once. Entries after “also recorded” stand apart in the source; their conditions may differ.

Tests used:
Assay type in all cases: cell-based, rat
CA1 pyramidal neurons [1] = experiment: Dendritic beading after high-frequency Schaffer collateral stimulation (HFS) in acute hippocampal slices; details: for effect on HFS-induced dendritic beading in cPAF-exposed slices: BAPTA 5 mM in pipette, Ac-DEVD-CHO 10 μM intracellular, L-NAME 100 μM, diazoxide 30 μM bath 40 to 60 min prior to HFS; for rate of beading following HFS in cPAF-exposed neurons: 1 μM cPAF plus CV-3988 10 μM, BN52021 2 μM or L-NAME 100 μM
Method: (§1) Imaging and LTP in acute hippocampal slices. Brains were removed from 17-30 day-old male Sprague-Dawley rats anesthetized with ketamine (180 μg/g), submerged them in ice-cold solution (in mM: NaCl 125, KCl 5, NaH2PO4 1.25, NaHCO3 28, CaCl2 0.5, MgCl2 4, D-glucose 25, kynurenic acid 1, bubbled with 95% O2/5% CO2), and cut 250 μm coronal slices using a vibroslice. Slices recovered in artificial cerebrospinal fluid (aCSF, in mM: NaCl 125, KCl 2.5, NaH2PO4 1.25, NaHCO3 25, CaCl2 2, MgCl2 1, D-glucose 25, bubbled with 95% O2/5% CO2) for >90 min prior to experiments.
(§2) Slices were transferred to a custom-made recording chamber perfused (1 ml/min) with aCSF containing 1 μM cPAF or vehicle. Membrane potentials from CA1 pyramidal neurons were recorded via whole-cell patch clamp, using 4-6 MΩ electrodes (filled with, mM: KCl 20, potassium gluconate 130, EGTA 0.5, HEPES10, MgSO4 2, ATP 2.5, GTP 0.5, pH 7.3) and a Multiclamp 700A amplifier with pClamp 9 software (Axon Instruments). Afferents were stimulated by constant current pulses (200 μs) via a bipolar stimulating electrode 50-200 μm away in the stratum radiatum. 10 μM bicuculline were included in the aCSF to isolate EPSPs, and adjusted stimulating intensity to elicit EPSPs 30% of maximal. After >10 min of test pulses (every 15 s), […] a high-frequency stimulus (HFS; three 1 s, 100 Hz trains, 20 s apart, at test-pulse intensity), then resumed test pulses for ≧50 min. […] Rising EPSP slope was used instead of peak amplitude as an index of synaptic efficacy to, avoid complication by action potentials evoked by some EPSPs after HFS. Amplitude (maximal sustained depolarization) and duration (at >25% maximal amplitude) of depolarization during HFS were also quantified.
Fluorescent images of dendrites from recorded cells were collected before and after HFS, after allowing 30 μM Alexa Fluor 568 hydrazide (Molecular Probes) in the recording electrode to fill the cell for >20 min. Using an external shutter to limit light exposure, image frames were captured at multiple focal planes and combined optimally-focused portions of these frames to display a composite image.
(§3) Dendrite morphology. For in vitro experiments pre- and post-exposure images of the same cells were compared. A neuron was considered beaded if its dendrites developed any focal swellings during the experiments (10, 14), though multiple dendrites were typically involved. Changes in spine number were determined by counting spines on the same dendrites before and after treatment.
(§4) Statistics. Differences in frequencies of dendritic beading were analyzed by Chi square, and changes in dendritic spine number by paired t-test. EPSP slope data were pooled over 10-minute intervals and used two-tailed t-tests to compare between groups or time points. A 0.05 significance level was used for all tests.

CA1 pyramidal neurons [2] = experiment: EPSP potentiation (LTP) after HFS in acute hippocampal slices, whole-cell patch clamp; details: for effect on synaptic potentiation / LTP in cPAF-exposed slices: BAPTA 5 mM, Ac-DEVD-CHO 10 μM, diazoxide 30 μM, PAF-R antagonists
Method: as §1, §2, §4

[3] = test system: dissociated hippocampal cultures; experiment: Dendritic beading in cultured neurons after depolarizing KCl pulses; details: for dendritic beading after 1 s KCl pulses in cPAF-exposed cultures: CNQX 10 μM together with AP-5 50 μM
Method: (§5) Primary hippocampal cultures and dendrite imaging. Dissociated hippocampal cultures from embryonic (E18) rats were prepared as previously described (53), plated on coverslips coated with poly-D-lysine and mouse laminin (reagents from Sigma-Aldrich unless otherwise noted) in Neurobasal plus B-27 media (GIBCO). After one week, 53 mM NaCl was added (to match solutions for physiological experiments) and antioxidants were removed from the media. Experiments were repeated using cultures from multiple dissections. Rodents were housed and treated in compliance with University of Rochester Committee on Animal Resources and NIH policies, and New York State and federal statutes.
(§6) At 20-24 days in vitro (DIV) neurons were transfected with EYFP (Clontech) or mRFP-1 (kind gift of Roger Tsien) vectors driven by CMV promoter, in a 1:2 ratio with Lipofectamine 2000 (Invitrogen). Serial fluorescence images of individual, live neurons (23-30 DIV) before and after exposure to 130 nM cPAF (Biomol) and/or synaptic stimulation by KCl were captured. For 60-hour exposure experiments, a 10 mM stock solution of cPAF (in EtOH) or vehicle was diluted into culture media. Neuronal survival was measured by Hoechst nuclear staining and propidium iodide exclusion.
For acute KCl stimulation experiments, coverslips were perfused in a custom-made chamber (200 μl) with bath solution (in mM: NaCl 139.5, KCl 2.5, CaCl2 2, MgCl2 1, glucose 24, HEPES 5, glycine 0.01, pH 7.3) at […], and exposed cultures to vehicle or cPAF for 20-90 min prior to stimulation. KCl (90 mM) was locally applied over the entire dendritic arbor of EYFP- or mRFP-expressing neurons in three 1- or 5-s pulses (10 s apart) using an 8-channel drug delivery system (ALA Scientific Instruments). In some experiments BN52021 (Biomol) or CNQX and AP-5 were added.
as §3, §4

hippocampal slices = experiment: Rhodamine 123 fluorescence (mitochondrial depolarization) after HFS in hippocampal slices; details: 1 μM cPAF
Method: The present experiments measure changes in mitochondrial membrane potential during and after HFS in hippocampal slices using the rhodamine 123, a cationic dye that distributes across the mitochondrial membrane in a voltage-sensitive manner. When loaded into hippocampal slices at a dose of 26 μM, rhodamine 123 accumulates in the mitochondria at high concentrations that causes its fluorescence to quench; if the mitochondria are subsequently depolarized, rhodamine 123 is released into the cytoplasm and its fluorescent signal increases. Mitochondrial hyperpolarization, conversely, drives more dye from the cytoplasm into the mitochondria, increasing quenching and reducing the signal. Reliability of this interpretation was confirmed by control experiments using FCCP and oligomycin to respectively depolarize and hyperpolarize the mitochondria.

CA1 pyramidal neurons [4] = experiment: Membrane potential and depolarization during HFS in hippocampal slices
Method: as §1
Slices were transferred to a custom-made recording chamber perfused (1 ml/min) with aCSF containing 1 μM cPAF or vehicle. Membrane potentials from CA1 pyramidal neurons were recorded via whole-cell patch clamp, using 4-6 MΩ electrodes (filled with, mM: KCl 20, potassium gluconate 130, EGTA 0.5, HEPES10, MgSO4 2, ATP 2.5, GTP 0.5, pH 7.3) and a Multiclamp 700A amplifier with pClamp 9 software (Axon Instruments). Afferents were stimulated by constant current pulses (200 μs) via a bipolar stimulating electrode 50-200 μm away in the stratum radiatum. 10 μM bicuculline were included in the aCSF to isolate EPSPs, and adjusted stimulating intensity to elicit EPSPs 30% of maximal. […] Amplitude (maximal sustained depolarization) and duration (at >25% maximal amplitude) of depolarization during HFS were also quantified.

[5] = test system: dissociated hippocampal cultures; experiment: 60-hour cPAF exposure of dissociated hippocampal cultures: dendritic beading, spine number, neuronal survival; details: 130 nM cPAF, 60-hour exposure
Method: as §5, §6, §3, §4

[6] = cPAF-treated slices plus PAF-R antagonist
[7] = cPAF-exposed slices plus compound (BN52021 2 μM, CV-3988 10 μM, Ac-DEVD-CHO 10 μM, diazoxide 30 μM), 40 to 50 min
[8] = 130 nM cPAF, BN52021 10 μM pre-treatment

O=C(O)CN(CC(=O)O)c1ccccc1OCCOc1ccccc1N(CC(=O)O)CC(=O)O [BAPTA]
effect on HFS-induced dendritic beading in cPAF-exposed slices (CA1 pyramidal neurons [1]): prevented dendritic beading; also recorded: eliminated dendritic beading
effect on synaptic potentiation / LTP in cPAF-exposed slices (CA1 pyramidal neurons [2]): eliminated synaptic potentiation

CCCCCCCCCCCCCCCCCCNC(=O)OCC(COP(=O)([O-])OCC[n+]1ccsc1)OC (stereo not shown) [CV-3988]
rate of beading following HFS in cPAF-exposed neurons (CA1 pyramidal neurons [1]): 14%
cells with dendritic beading elicited by HFS (CA1 pyramidal neurons [1]; [6]): 1 of 7
EPSP potentiation following HFS (CA1 pyramidal neurons [2]; [7]): 1.07±0.13 relative to baseline

NC(CCCP(=O)(O)O)C(=O)O (stereo not shown) [AP-5]
dendritic beading after 1 s KCl pulses in cPAF-exposed cultures [3, 8]: prevented

COC(=O)[C@@H](N)CCCNC(=N)N[N+](=O)[O-] [L-NAME]
rate of beading following HFS in cPAF-exposed neurons (CA1 pyramidal neurons [1]): 57%
effect on HFS-induced dendritic beading in cPAF-exposed slices (CA1 pyramidal neurons [1]): no protection; also recorded: no effect

CCCCCCCCCCCCCCCCOC[C@H](COP(=O)([O-])OCC[N+](C)(C)C)OC(=O)NC [cPAF]
increase in rhodamine 123 fluorescence compared to control slices (hippocampal slices): four-fold larger; also recorded: four-fold greater
peak increase in rhodamine 123 fluorescence above baseline following HFS (hippocampal slices; CA1 stratum radiatum, 55 s after start of HFS): 5.90±1.86%
cells beaded in response to three 1 s KCl pulses ([3]; 130 nM cPAF, acute 20 to 90 min exposure): 90%
recorded neurons with dendritic beading following HFS (CA1 pyramidal neurons [1]; 1 μM cPAF for 20 to 60 minutes prior to recording): 57%
delay to appearance of HFS-induced dendritic beading (CA1 pyramidal neurons [1]; cPAF-exposed cells): 15 to 35 min
cells with dendritic beading elicited by HFS (CA1 pyramidal neurons [1]; cPAF-treated slices): 11 of 19
baseline membrane potential (CA1 pyramidal neurons [4]; 1 μM cPAF for up to 7 hours): −63±3.6 mV
duration of depolarization during HFS (CA1 pyramidal neurons [4]; cPAF-exposed neurons): 693 ± 296 ms
EPSP potentiation following HFS (CA1 pyramidal neurons [2]; 1 μM cPAF, cells that did not develop dendritic beading, 40 to 50 min): 1.60±0.26 relative to baseline
EPSP potentiation following HFS (CA1 pyramidal neurons [2]; 1 μM cPAF, cells whose dendrites beaded, 40 to 50 min): 0.84±0.12 relative to baseline
decrease in numbers of dendritic spines [5]: 45.1±5.0% and 45±5%
neuronal survival by Hoechst and propidium iodide staining [5]: 80.2±4.3%
neurons that developed dendritic beading ([5]; serially-imaged cells): 56%

Ac-DEVD-CHO
effect on HFS-induced dendritic beading in cPAF-exposed slices (CA1 pyramidal neurons [1]): prevented dendritic beading
effect on synaptic potentiation / LTP in cPAF-exposed slices (CA1 pyramidal neurons [2]): failed to rescue LTP; also recorded: failed to restore a lasting potentiation
EPSP potentiation following HFS (CA1 pyramidal neurons [2]; cPAF-exposed slices plus Ac-DEVD-CHO 10 μM, 0 to 10 min): 1.97±0.28 relative to baseline
EPSP potentiation following HFS (CA1 pyramidal neurons [2]; [7]): 1.22±0.19 relative to baseline

CC1C(=O)OC2C(O)C34C5CC(C(C)(C)C)C36C(OC(=O)C6O)OC4(C(=O)O5)C12O (stereo not shown) [BN52021]
dendritic beading after 1 s KCl pulses in cPAF-exposed cultures [3, 8]: no cells developed beading; also recorded: blocked the increase in vulnerability
cells beaded after 5 s KCl pulses ([3]; cPAF-exposed, BN52021 10 μM pre-treatment): 86%
rate of beading following HFS in cPAF-exposed neurons (CA1 pyramidal neurons [1]): 10%
cells with dendritic beading elicited by HFS (CA1 pyramidal neurons [1]; [6]): 1 of 10
EPSP potentiation following HFS (CA1 pyramidal neurons [2]; [7]): 1.29±0.05 relative to baseline

N#Cc1cc2[nH]c(=O)c(=O)[nH]c2cc1[N+](=O)[O-] [CNQX]
dendritic beading after 1 s KCl pulses in cPAF-exposed cultures [3, 8]: prevented
